Results published in US11254958B1, “Metabolic engineering of E coli with thio-phosphate” (priority 2018, dated 2022).
Entries after “also recorded” stand apart in the source; their conditions may differ.

How the values were obtained:
[1] = test system: E. coli K12 and JM109 strains; assay: Morphological changes by bright field microscopy; type: cell-based
Experimental: (§1) E coli K12 bacteria were grown in high citrate minimal media with 5.4 g/L of thiophosphate or 2.4 g/L of Na2HPO4 for up to 12 hrs. The use of high citrate media was chosen to help lower the total amount of thiophosphate needed for growth when compared to regular M9 media (1). The media is prepared as follows: thiophosphate, 5.4 g/L; KCL 1.5 g/L; (NH4)2SO4, 2 g/L; sodium citrate 2H2O, 10 g/L. Adjust the pH to 7.5 and sterile filter the solution. Then add the following: MgSO4-7H2O, 0.2 g/L (sterilized separately as a conc. solution); glucose, 2 g/L sterilized separately by filtration). Glucose can also be sterilized by autoclaving separately. CaCl2 (11 mg/L) is also be added as needed.
To see if any morphological changes were occurring the bacteria were examined using bright field microscopy. […] To test whether this morphology was due to a nutritional deficiency K12 cells were grown in LB broth with 2.7 g of thiophosphate per liter.
In this media, filaments were detected by 8 hrs and by 2 hrs paired bacteria could be seen, as before with minimal media. In the 8 hr sample, however, the view was more mixed compared to that seen with minimal media, as both filamentous bacteria and some shorter and more normal appearing bacteria were observed.

E coli = details: cited from earlier work
E coli K12 bacteria = assay: Microarray analysis (Affymetrix E. coli Genome 2.0); type: cell-based
Experimental: as §1
Both Microarray and RNA seq analysis was performed. Total RNA was used for both studies. For microarray studies, raw Affymetrix CEL files (E. coli Genome 2.0) were normalized to produce probeset-level expression values for all probesets with Expression Console (version 1.4.1.46), using the Robust Multiarray Average (RMA) and Detection Above BackGround (DABG) (Irizarry R. A et al. 2003, Biostatistics 4(2): 249-64. doi:10.1093/biostatistics/4.2.249). The analysis was limited to 10,112 E. coli probesets interrogated by the array. Fold changes were computed using the R environment for statistical computing (version 2.15.1) by Boston University Microarray and Sequencing (CTSA grant #1UL1TR001430).

[2] = test system: Bacillus megaterium strain ATCC 15117; assay: AICA production/secretion in fermentation with thio-phosphate; type: cell-based
Experimental: Bacillus megaterium was grown using a modified minimal media. In particular, the media contained: glucose, 60 g/L; KCL 1 g/L; MgSO4 0.4 g/L; peptone, 2 g/L; adenine, 0.25 g/L; NH4CI 8 g/L, urea, 3 g/L, calcium chloride, 0.5 g/L; as well as ferrous sulfate and manganese sulfate at 0.005 g/L. Thio-phosphate was added at levels between 2-6 g/L. For controls NaH2PO4 was add at 1 g/L.
Bacillus megaterium strain ATCC 15117 (U.S. Pat. No. 3,238,110 & 3,748,232) was used to examine the increased production of AICA using thio-phosphate. Cells were cultured at 26-30° C. for 4 days with 4 g/L of thio-phosphate or normal phosphate (1 g/L). […] The cells were pelleted, and the supernatant was acidified to pH 2 to help remove unwanted amino acids. The samples were then diluted with one volume of water and bound to activated charcoal with shaking for 2 hrs. (2 grams/20 ml) at room temp. The charcoal was collected on a filter with filtration and washed with 0.01 N HCl. AICA was then eluted with a solution of ethanol/ammonium hydroxide/water at a 1:1:2 ratio using a volume equivalent to the original supernatant. The samples were then separated and analyzed on Whatman chromatography paper using a solvent mixture of 50% butanol, 15% ethanol, and 35% water. The results indicated a ˜2× fold increase AICA per volume of cells.
Histidine and tryptophan were added to fermentation reactions to enhance AICA yield by blocking the endogenous synthesis of these amino acids. […] Fermentation reactions were typically initiated with 1.5 ml of overnight growth in nutrient broth which was then diluted into 50 ml of the reaction media. […] Despite the high activity, the growth of these cells was inhibited, almost in parallel with the amount of AICA secreted.

[3] = semi-synthetic media containing thiophosphate with amino acids added
[4] = microarray (value outside parentheses)
[5] = 4 g/L thio-phosphate vs normal phosphate
[6] = twice as many starter cells, 50 mg each of his and trp

SMILES: OP(O)(O)=S [thio-phosphate]
- morphology ([1]; K12, LB broth with 2.7 g of thiophosphate per liter, 12 hrs): Filamentous growth was not observed; also recorded: paired phenotype
- morphology ([1]; K12, LB broth with 2.7 g of thiophosphate per liter, 12 hrs, listed as TP): paired phenotype
- morphology ([1]; K12 and JM109, minimal thiophosphate media, 12 hrs): distinct filamentous morphology
- morphology ([1]; K12 and JM109, minimal thiophosphate media, 12 hrs, listed as TP): filamentous phenotype
- morphology ([1]; K12 and JM109, thiophosphate media, 2 hrs): appeared as pairs
- growth [1, 3]: good growth
- morphology [1, 3]: mixed with both long filamentous and shorter bacterial cells
- protein spots significantly changed (E coli; previous studies): 28%
- average fold change of proteins (E coli; prior protein results): ~5 × fold
- proteins decreased (E coli; prior protein results): 13%
- proteins increased (E coli; prior protein results): 15%
- average fold change of 19 genes with unstable mRNAs (E coli K12 bacteria; half-lives less than or equal to 1.4 minutes): 1.0+/−2.8
- Dxs transcript fold enhancement (E coli K12 bacteria; microarray): 2.5 × fold
- FabB transcript elevation (E coli K12 bacteria; microarray): 3 ×
- TesA transcript elevation (E coli K12 bacteria; microarray): 4 ×
- Udp transcript fold reduction (E coli K12 bacteria; microarray): 3.2 × fold
- Upp transcript increase (E coli K12 bacteria; microarray): 2 ×
- accA transcript elevation (E coli K12 bacteria; microarray): 1.3
- accC transcript elevation (E coli K12 bacteria; microarray): 3.2
- accD transcript elevation (E coli K12 bacteria; microarray): 1.4
- adk transcript fold elevation (E coli K12 bacteria; microarray): 1.5 × fold
- dusB transcript fold elevation (E coli K12 bacteria; microarray): ≥ 3 × fold
- infB transcript fold elevation (E coli K12 bacteria; microarray): 3.1 × fold
- ispD transcript fold enhancement (E coli K12 bacteria; microarray): 2.5 × fold
- other IPP/DMAPP synthesis gene transcripts (the others) fold enhancement (E coli K12 bacteria; microarray): ~1.3 × fold
- prsA transcript elevation (E coli K12 bacteria; microarray): < 2 ×
- pyrF transcript fold elevation (E coli K12 bacteria; microarray): 3.7 × fold
- rlmH transcript fold elevation (E coli K12 bacteria; microarray): at least 3.4 × fold
- rpoS transcript fold elevation (E coli K12 bacteria; microarray): 3 × fold
- tadA transcript fold elevation (E coli K12 bacteria; microarray): ≥ 3 × fold
- trmA transcript fold elevation (E coli K12 bacteria; microarray): ≥ 3 × fold
- ycih transcript fold elevation (E coli K12 bacteria; microarray): 3.3 × fold
- yqgf transcript fold elevation (E coli K12 bacteria; microarray): at least 3.4 × fold
- dacA transcript elevation (E coli K12 bacteria; [4]): 3.6 × fold
- ftsI transcript elevation (E coli K12 bacteria; [4]): 1.6 ×
- idtB transcript elevation (E coli K12 bacteria; [4]): 2 ×
- idtC transcript elevation (E coli K12 bacteria; [4]): 5.2 ×
- FabA, FabG, FabZ, FabI, FabF gene transcripts (E coli K12 bacteria; microarray and RNA seq): elevated
- tRNA synthetases average increase (E coli K12 bacteria; microarray, 20 genes): 1.24 × fold
- CspA transcript fold increase (E coli K12 bacteria; microarray, vs control): 3.1 × fold
- nusA transcript fold increase (E coli K12 bacteria; microarray, vs control): 2.6 × fold
- pgsA mRNA fold enhancement (E coli K12 bacteria; platform not given): 1.9 × fold
- plsB mRNA fold enhancement (E coli K12 bacteria; platform not given): 1.9 × fold
- pssA mRNA fold enhancement (E coli K12 bacteria; platform not given): 1.9 × fold
- average fold change for 10,110 transcripts (E coli K12 bacteria; standard deviation 1.4): −0.1
- average fold change of 23 mRNAs with half-lives greater than 10 minutes (E coli K12 bacteria; standard deviation 2.44): 1.2
- effect on cells by day 4 ([2]; 100 mg of histidine and tryptophan each per liter): cell lysis
- growth recovery by day 4 ([2]; 4 g/L thio-phosphate): 60-100 % of controls
- growth after 24 hrs [2, 5]: the same
- growth recovered by the third day [2, 5]: normal or 60% of normal levels
- fold increase AICA per volume of cells ([2]; 4 g/L thio-phosphate vs normal phosphate (1 g/L), 26-30° C., 4 days): ~2 × fold
- AICA levels increased ([2]; per cell mass basis compared to normal phosphate containing culture media): 2 ×
- cell specific yield of AICA [2, 6]: 5-6 × fold
- growth of cells [2, 6]: inhibited
